pIC50: −log10 of the molar value.

For this experiment, the target named is T1, AXL (fusion protein of amino acids 464-885 of the intracellular domain of human AXL with glutathione transferase) (Homo sapiens, UniProt P30530).
T1 sequence (P30530 464-885 isoform P30530-2): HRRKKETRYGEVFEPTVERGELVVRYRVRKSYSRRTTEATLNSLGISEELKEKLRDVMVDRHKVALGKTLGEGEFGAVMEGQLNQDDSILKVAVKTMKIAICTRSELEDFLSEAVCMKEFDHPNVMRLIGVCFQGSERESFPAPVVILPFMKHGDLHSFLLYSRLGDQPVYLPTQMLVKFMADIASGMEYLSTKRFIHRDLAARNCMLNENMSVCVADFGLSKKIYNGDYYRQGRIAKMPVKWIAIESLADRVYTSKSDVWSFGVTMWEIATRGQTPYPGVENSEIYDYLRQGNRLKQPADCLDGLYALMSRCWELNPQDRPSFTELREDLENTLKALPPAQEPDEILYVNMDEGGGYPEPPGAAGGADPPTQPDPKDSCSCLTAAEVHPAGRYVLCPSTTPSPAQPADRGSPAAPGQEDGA
Put plainly: Cell-Free Axl Kinase Inhibitory Activity.
Molecule `CNC(=O)Cn1cc(C(=O)Nc2ccc(-c3cc(-c4ccc(OC)c(OC)c4)cnc3N)cc2)c(=O)c(-c2ccc(F)cc2)c1` [Example 15, N-{4-[2-Amino-5-(3,4-dimethoxyphenyl)pyridin-3-yl]phenyl}-5-(4-fluorophenyl)-1-[2-(methylamino)-2-oxoethyl]-4-oxo-1,4-dihydropyridine-3-carboxamide] showed a pIC50 of 9.00 to 10.00.

Take `Cn1cc(-c2cnc(N)c(-c3ccc(NC(=O)c4cn(CCF)cc(-c5ccc(F)cc5)c4=O)cc3)c2)cn1` [Example 48, N-{4-[2-Amino-5-(1-methyl-1H-pyrazol-4-yl)pyridin-3-yl]phenyl}-1-(2-fluoroethyl)-5-(4-fluorophenyl)-4-oxo-1,4-dihydropyridine-3-carboxamide]: the pIC50 is 8.00 to 9.00.

For the molecule `Nc1ncc(-c2cnn(C[C@H]3COCCO3)c2)cc1-c1ccc(NC(=O)c2cn(Cc3ccc(F)cc3)cc(C(=O)N3CCCC3)c2=O)cc1F` [Example 76, N-[4-(2-Amino-5-{1-[(2S)-1,4-dioxan-2-ylmethyl]-1H-pyrazol-4-yl}pyridin-3-yl)-3-fluorophenyl]-1-(4-fluorobenzyl)-4-oxo-5-(pyrrolidin-1-ylcarbonyl)-1,4-dihydropyridine-3-carboxamide], the pIC50 was 9.00 to 10.00.

For the molecule `Nc1ncc(-c2cnn(C[C@H]3COCCO3)c2)cc1-c1ccc(NC(=O)c2cn(CCF)cc(-c3ccccc3)c2=O)cc1F` [Example 75, N-[4-(2-Amino-5-{1-[(2S)-1,4-dioxan-2-ylmethyl]-1H-pyrazol-4-yl}pyridin-3-yl)-3-fluorophenyl]-1-(2-fluoroethyl)-4-oxo-5-phenyl-1,4-dihydropyridine-3-carboxamide], the negative logarithm of the IC50 (pIC50) was 8.00 to 9.00.

`CCN(CC)C(=O)c1cn(Cc2ccc(F)cc2)cc(C(=O)Nc2ccc(-c3cc(-c4cnn(C[C@H]5COCCO5)c4)cnc3N)cc2)c1=O` [Example 70, N′-[4-(2-Amino-5-{1-[(2S)-1,4-dioxan-2-ylmethyl]-1H-pyrazol-4-yl}pyridin-3-yl)phenyl]-N,N-diethyl-1-(4-fluorobenzyl)-4-oxo-1,4-dihydropyridine-3,5-dicarboxamide] showed a pIC50 of 8.00 to 9.00.

On to `COc1ccc(-c2cnc(N)c(-c3ccc(NC(=O)c4cn(CC(F)(F)F)cc(-c5ccc(Cl)cc5)c4=O)cc3)c2)cc1OC` [Example 25, N-{4-[2-Amino-5-(3,4-dimethoxyphenyl)pyridin-3-yl]phenyl}-5-(4-chlorophenyl)-4-oxo-1-(2,2,2-trifluoroethyl)-1,4-dihydropyridine-3-carboxamide], for which the negative logarithm of the IC50 (pIC50) is 8.00 to 9.00.

On to `COc1ccnc(N)c1-c1ccc(NC(=O)c2cn(CC(F)(F)F)cc(-c3ccc(F)cc3)c2=O)cc1F` [Example 85, N-[4-(2-Amino-4-methoxypyridin-3-yl)-3-fluorophenyl]-5-(4-fluorophenyl)-4-oxo-1-(2,2,2-trifluoroethyl)-1,4-dihydropyridine-3-carboxamide], for which the pIC50 was 9.00 to 10.00.

`Cc1nnc(-c2cn(Cc3ccc(F)cc3)cc(C(=O)Nc3ccc(-c4cc(-c5cnn(C[C@H]6COCCO6)c5)cnc4N)cc3)c2=O)o1` [Example 74, N-[4-(2-Amino-5-{1-[(2S)-1,4-dioxan-2-ylmethyl]-1H-pyrazol-4-yl}pyridin-3-yl)phenyl]-1-(4-fluorobenzyl)-5-(5-methyl-1,3,4-oxadiazol-2-yl)-4-oxo-1,4-dihydropyridine-3-carboxamide] had a negative-log IC50 (pIC50) of 9.00 to 10.00.

Molecule `Cn1cc(-c2cnc(N)c(-c3ccc(NC(=O)c4cn(Cc5ccc(F)cc5)ccc4=O)cc3)c2)cn1` [Example 56, N-{4-[2-Amino-5-(1-methyl-1H-pyrazol-4-yl)pyridin-3-yl]phenyl}-1-(4-fluorobenzyl)-4-oxo-1,4-dihydropyridine-3-carboxamide] showed a negative logarithm of the IC50 (pIC50) of 8.00 to 9.00.

For `CCn1cc(C(=O)Nc2ccc(-c3cc(-c4cnn(C[C@H]5COCCO5)c4)cnc3N)cc2)c(=O)c(-c2ccc(F)cc2)c1` [Example 64, N-[4-(2-Amino-5-{1-[(2S)-1,4-dioxan-2-ylmethyl]-1H-pyrazol-4-yl}pyridin-3-yl)phenyl]-1-ethyl-5-(4-fluorophenyl)-4-oxo-1,4-dihydropyridine-3-carboxamide], the pIC50 was 9.00 to 10.00.

With `COc1ccc(-c2cnc(N)c(-c3ccc(NC(=O)c4cn(CC(F)(F)OC)cc(-c5ccc(F)cc5)c4=O)cc3)c2)cc1OC` [Example 17, N-{4-[2-Amino-5-(3,4-dimethoxyphenyl)pyridin-3-yl]phenyl}-1-(2,2-difluoro-2-methoxyethyl)-5-(4-fluorophenyl)-4-oxo-1,4-dihydropyridine-3-carboxamide], the pIC50 is 9.00 to 10.00.

The molecule `CCn1cc(C(=O)Nc2ccc(-c3cc(-c4cnn(C)c4)cnc3N)cc2)c(=O)c(-c2ccc(F)cc2)c1` [Example 47, N-{4-[2-Amino-5-(1-methyl-1H-pyrazol-4-yl)pyridin-3-yl]phenyl}-1-ethyl-5-(4-fluorophenyl)-4-oxo-1,4-dihydropyridine-3-carboxamide] had a pIC50 of 8.00 to 9.00.

`COc1ccc(-c2cnc(N)c(-c3ccc(NC(=O)c4cn(CC(F)(F)F)cc(-c5ccc(F)cc5)c4=O)cn3)c2)cc1OC` [Example 87, N-[2′-Amino-5′-(3,4-dimethoxyphenyl)-2,3′-bipyridin-5-yl]-5-(4-fluorophenyl)-4-oxo-1-(2,2,2-trifluoroethyl)-1,4-dihydropyridine-3-carboxamide] had a pIC50 of 8.00 to 9.00.

`COc1cc(-c2cnc(N)c(-c3ccc(NC(=O)c4cn(CC(F)(F)F)cc(-c5ccc(F)cc5)c4=O)cc3)c2)ccc1O` [Example 37, N-{4-[2-Amino-5-(4-hydroxy-3-methoxyphenyl)pyridin-3-yl]phenyl}-5-(4-fluorophenyl)-4-oxo-1-(2,2,2-trifluoroethyl)-1,4-dihydropyridine-3-carboxamide] showed a negative-log IC50 (pIC50) of 8.00 to 9.00.

Molecule `COc1ccc(-c2cnc(N)c(-c3ccc(NC(=O)c4cn(Cc5ccccc5)cc(-c5ccc(F)cc5)c4=O)cc3)c2)cc1OC` [Example 10, N-{4-[2-Amino-5-(3,4-dimethoxyphenyl)pyridin-3-yl]phenyl}-1-benzyl-5-(4-fluorophenyl)-4-oxo-1,4-dihydropyridine-3-carboxamide] had a pIC50 of 8.00 to 9.00.

Consider `COc1ccc(-c2cnc(N)c(-c3ccc(NC(=O)c4cn(C(C)C)cc(-c5ccc(F)cc5)c4=O)cc3)c2)cc1OC` [Example 4, N-{4-[2-Amino-5-(3,4-dimethoxyphenyl)pyridin-3-yl]phenyl}-5-(4-fluorophenyl)-4-oxo-1-(propan-2-yl)-1,4-dihydropyridine-3-carboxamide], for which the pIC50 was 8.00 to 9.00.

`CCn1cc(C(=O)Nc2ccc(-c3cc(-c4ccc(OC[C@H]5COCCO5)c(OC)c4)cnc3N)cc2)c(=O)c(-c2ccccc2)c1` [Example 45, N-[4-(2-Amino-5-{4-[(2R)-1,4-dioxan-2-ylmethoxy]-3-methoxyphenyl}pyridin-3-yl)phenyl]-1-ethyl-4-oxo-5-phenyl-1,4-dihydropyridine-3-carboxamide] had a negative-log IC50 (pIC50) of 8.00 to 9.00.

`Cc1cc(-c2cnc(N)c(-c3ccc(NC(=O)c4cn(CCF)cc(-c5ccc(F)cc5)c4=O)cc3)c2)ccn1` [Example 78, N-[4-(6-Amino-2′-methyl-3,4′-bipyridin-5-yl)phenyl]-1-(2-fluoroethyl)-5-(4-fluorophenyl)-4-oxo-1,4-dihydropyridine-3-carboxamide] showed a pIC50 of 8.00 to 9.00.

In the case of `Cn1cc(-c2cnc(N)c(-c3ccc(NC(=O)c4cn(CCF)cc(-c5ccccc5)c4=O)cc3F)c2)cn1` [Example 55, N-{4-[2-Amino-5-(1-methyl-1H-pyrazol-4-yl)pyridin-3-yl]-3-fluorophenyl}-1-(2-fluoroethyl)-4-oxo-5-phenyl-1,4-dihydropyridine-3-carboxamide], the negative-log IC50 (pIC50) was 8.00 to 9.00.

The molecule `COc1ccnc(N)c1-c1ccc(NC(=O)c2cn(CCF)cc(-c3ccc(F)cc3)c2=O)cc1` [Example 83, N-[4-(2-Amino-4-methoxypyridin-3-yl)phenyl]-1-(2-fluoroethyl)-5-(4-fluorophenyl)-4-oxo-1,4-dihydropyridine-3-carboxamide] showed a negative logarithm of the IC50 (pIC50) of 7.70 to 8.00.

Molecule `COc1ccc(-c2cnc(N)c(-c3ccc(NC(=O)c4cn(CC(F)(F)F)cc(-c5ccc(F)nc5)c4=O)cc3)c2)cc1OC` [Example 23, N-{4-[2-Amino-5-(3,4-dimethoxyphenyl)pyridin-3-yl]phenyl}-6′-fluoro-4-oxo-1-(2,2,2-trifluoroethyl)-1,4-dihydro-3,3′-bipyridine-5-carboxamide] had a pIC50 of 8.00 to 9.00.

`Cc1cc(=O)c(C(=O)Nc2ccc(-c3cc(-c4cnn(C)c4)cnc3N)cc2)cn1Cc1ccc(F)cc1` [Example 57, N-{4-[2-Amino-5-(1-methyl-1H-pyrazol-4-yl)pyridin-3-yl]phenyl}-1-(4-fluorobenzyl)-6-methyl-4-oxo-1,4-dihydropyridine-3-carboxamide]: the negative logarithm of the IC50 (pIC50) is 8.00 to 9.00.

Molecule `COc1ccc(-c2cnc(N)c(-c3ccc(NC(=O)c4cn(CCF)cc(-c5ccccc5)c4=O)cc3)c2)cc1OC` [Example 19, N-{4-[2-Amino-5-(3,4-dimethoxyphenyl)pyridin-3-yl]phenyl}-1-(2-fluoroethyl)-4-oxo-5-phenyl-1,4-dihydropyridine-3-carboxamide] gave a pIC50 of 8.00 to 9.00.

As to `COc1ccc(-c2cnc(N)c(-c3ccc(NC(=O)c4cn(CCF)cc(-c5ccc(F)cc5)c4=O)cc3)c2)cc1OC` [Example 8, N-{4-[2-Amino-5-(3,4-dimethoxyphenyl)pyridin-3-yl]phenyl}-1-(2-fluoroethyl)-5-(4-fluorophenyl)-4-oxo-1,4-dihydropyridine-3-carboxamide], the pIC50 is 8.00 to 9.00.

As a reminder, the pIC50 is the IC50 on a negative log10 scale, so that one unit is a factor of ten.
